From patent EP3248604A1, “AGENTS FOR MODULATION OF WNT-TCF SIGNALLING AND USES THEREOF” (UNIVERSITE DE GENEVE, priority 2016, dated 2017)

Legend:
[1] = tested on: cell proliferation; assay: BrdU incorporation assay; format: cell-based; conditions: Example 3 (Ls174T, DLD1 cells)
Description: Cells incubated in vitro with different compounds were treated in DMEM-F12 with reduced serum (2.5% FBS) for 20 min with BrdU (5-bromo-2'-deoxyuridine; 10mg/ml, Sigma), washed and fixed with fresh paraformaldehyde (PFA; 4%, pH 8) followed by acid treatment and neutralization (Melotti et al., 2014, supra). Antibody analyses used anti-BrdU antibodies (supplied by University of Iowa Hybridoma Bank) and rhodamine-coupled anti-mouse secondary antibodies (Invitrogen Molecular Probes). Nuclei were counterstained with DAPI (4',6-diamidino-2-phenylindole; Sigma).

[2] = tested on: Ls174T cells; assay: Clonal spheroid assay, Ls174T; format: cell-based, human; conditions: Homo sapiens, LS174T, 16 h, read-out: IC50, number of stem cell-derived spheroids
Description: Cells were treated with different concentrations of compounds for 16h in 2D adherent culture, washed, harvested and plated in suspension with serum-free DMEM-F12 media with B27 supplement (1:50 dilution) at 1 cell/well in 96-well format in triplicates. Plated cells were monitored to ensure the presence of single cells in each well and spheroids counted and photographed after 10 days for each round.
To directly test for a long-lasting repression of WNT-TCF targets by CAP2 clonogenic properties of cancer stem cells were tested. DLD1 and LS174T cells were first treated with CAP2 in 2D culture in vitro followed by removal of the drug, washing with PBS, and plating under non-adherent 3D conditions for clonal spheroid growth in the absence of the drug. After primary spheroid growth, the spheroids were dissociated and replated as single cells for secondary and subsequent clonogenic spheroid formation, also in the absence of the compound of the invention. As negative control DMSO-treatment was used.

[3] = tested on: WNT-TCF targets; assay: Epistatic rescue with TCF^VP16, Ls174T; format: cell-based, human; conditions: CAP2 5µM, 16h
Description: (§1) Lentivectors expressing a TCF4^VP16 protein in a vector independently expressing GFP, or vector alone, plus reporter plasmids were transfected into cells. 72h after transfection cells were visually checked for expression of GFP. Independent batches of cells with >80% GFP expression were chosen for further experimentation and treated with or without compounds in DMEM-F12 (with 2.5% FBS) for 16h and collected in Trizol.
(§2) If the effects of CAP2 on WNT-TCF targets were specific, an activated form of TCF should rescue the repression since CAP2 is likely to act downstream of the APC destruction complex since it was found using an N'Δ form of βCATENIN that is APC insensitive. To activate this last step of canonical WNT signaling, a fusion between TCF and the potent transactivation domain of the viral VP16 protein, TCF^VP16 (Melotti et al., 2014, supra), was used to directly and positively regulate TCF targets. […] Rescue of LGR5, cMYC and ASCL2 repression by CAP2 (at 5µM) was also observed although there was variability between the cell types, similarly to the repression of CDKN1A (Table 8), although in all cases it reversed its enhancement by CAP2 treatment (Table 8).

[4] = tested on: WNT-TCF targets; assay: Epistatic rescue with TCF^VP16, mCC11; format: cell-based, human; conditions: CAP2 5µM, 16h
Description: as §1, §2

[5] = tested on: Chemokine/cytokine; assay: RT-qPCR gene expression in Ls174T cells, chemokine/cytokine genes; format: cell-based, human; design: key: ratio normalized to DMSO control = 1; conditions: vs DMSO=1
Description: (§3) RT-qPCR was performed as in Melotti et al. (2014, supra) using BioRad equipment and reagents. Cells cultured in nitro were treated with the desired concentration of drug in DMEM-F12 and reduced serum (2.5% FBS) for 16h, unless otherwise noted, and collected in Trizol (Sigma) before total RNA extraction and cDNA synthesis. Primers were as in Table 1. HPRT (gene encoding Hypoxanthine phosphoribosyltransferase 1) and βACTIN were used as housekeeping controls for normalization.
Nine components of the three pathways (WNT-TCF, BMP/TGFβ and chemokine/cytokine), and the top 6 repressed epigenetic regulators (ZMYND8, EED, SMARCAL1, TBLIXR1, SETD6 and TAF5L) (Figure 12) were tested for their modulation by dnTCF and their timed response to CAP2 treatment. […] DnTCF also repressed the expression of BMP4, SMAD6, IL8, CXCL3 and CXCL5, but expression of IL33 was enhanced. […] BMP4 and ID2 were also repressed at 2 and 4h but SMAD6 was repressed only at 4h. CXCL3 was already repressed at 2h, IL8 was little affected and IL33 and CXCL5 were enhanced at 2h. At 4 h only CXCL3 was repressed and the other three cytokine/chemokine genes tested (IL8, IL33 and CXCL5) were neither enhanced nor repressed. […] All values are normalized ratios with DMSO-controls, which were equated to 1 Table 14

[6] = tested on: Epigenetic regulators; assay: RT-qPCR of epigenetic regulators in HT29 cells; format: cell-based, human; conditions: 0.5 µM
Description: as §3
(§4) The WNT-TCF-independent repressive activity of CAP2 on epigenetic regulators may be extrapolated to other cancer cells as it was also detected in HT29 and CC14 human colon cancer cells, in MeWo human melanoma cells as well as in U87 and U251 human glioma cells. In all these different human cancer cells, CAP2 (at 0.5 µM) modulated the expression of ZMYND8, SMARCAL1, TBLIXR1, SETD6 and TAF5Ls (Table 15).

[7] = tested on: Epigenetic regulators; assay: RT-qPCR of epigenetic regulators in CC14 cells; format: cell-based, human; conditions: 0.5 µM
Description: as §3, §4

[8] = tested on: Epigenetic regulators; assay: RT-qPCR of epigenetic regulators in U251 cells; format: cell-based, human; conditions: 0.5 µM
Description: as §3, §4

CC1=C(C)C(=O)O[C@@H]([C@](C)(O)[C@]2(O)CC[C@@]3(O)[C@@H]4CC=C5CC=CC(=O)[C@]5(C)[C@H]4CC[C@]23C)C1 [CAP2]
concentration which changes cell proliferation assessed by BrdU incorporation [1]: 1.25 µM
IC50 [2]: < 1250 nM
ASCL2 expression, TCF^VP16+ CAP2 / control + CAP2 [3]: 1.0
AXIN2 expression, TCF^VP16+ CAP2 / control + CAP2 [3]: 16.1
CDKN1A expression, TCF^VP16+ CAP2 / control + CAP2 [3]: 0.5
LGR5 expression, TCF^VP16+ CAP2 / control + CAP2 [3]: 0.7
cMYC expression, TCF^VP16+ CAP2 / control + CAP2 [3]: 2.7
ASCL2 expression, TCF^VP16+ CAP2 / control + CAP2 [4]: 3.5
AXIN2 expression, TCF^VP16+ CAP2 / control + CAP2 [4]: 21.9
CDKN1A expression, TCF^VP16+ CAP2 / control + CAP2 [4]: 0.8
LGR5 expression, TCF^VP16+ CAP2 / control + CAP2 [4]: 2.9
cMYC expression, TCF^VP16+ CAP2 / control + CAP2 [4]: 3.3
CXCL3 expression ([5]; 5µM batch 3, 2h post-treatment): 0.2
CXCL5 expression ([5]; 5µM batch 3, 2h post-treatment): 1.3
IL8 expression ([5]; 5µM batch 3, 2h post-treatment): 0.7
IL33 expression ([5]; 5µM batch 3, 2h post-treatment): 1.4
CXCL3 expression ([5]; 5µM batch 3, 4h post-treatment): 0.1
CXCL5 expression ([5]; 5µM batch 3, 4h post-treatment): 1.1
IL8 expression ([5]; 5µM batch 3, 4h post-treatment): 0.8
IL33 expression ([5]; 5µM batch 3, 4h post-treatment): 1.1
EED expression [6]: 0.3
SETD6 expression [6]: 0.2
SMARCAL1 expression [6]: 0.2
TAF5L expression [6]: 0.4
TBL1XR1 expression [6]: 0.02
ZMYND8 expression [6]: 0.1
EED expression [7]: 0.3
SETD6 expression [7]: 0.4
SMARCAL1 expression [7]: 0.2
TAF5L expression [7]: 0.5
TBL1XR1 expression [7]: 0.2
ZMYND8 expression [7]: 0.1
EED expression [8]: 0.8
SETD6 expression [8]: 0.9
SMARCAL1 expression [8]: 0.5
TAF5L expression [8]: 1.1
TBL1XR1 expression [8]: 0.6
ZMYND8 expression [8]: 0.4
